The experiment concerns cancer cells. Nature of the experiment: MTS assay: inhibition of cell growth (formazan absorbance at 492 nm after 72 hours with test compound). Particulars: inhibition class. In kind it is cell-based. The essentials:
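DMEM with 1% FBS; cells seeded at 3000/well and grown 18 h at 37 °C, then exposed to compound for 72 h and to MTS/PMS for 4 h. IC50 is the concentration giving a 50% absorbance drop; grades are % inhibition bands.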

The mark [1] stands for this setting: Homo sapiens, DLD-1 cells, read-out: DLD-1, MTS 72 hours at 10 uM.
Where [2] appears, read: Homo sapiens, KATO III cells, read-out: KATO III, MTS 72 hours at 10 uM.
Where [3] appears, read: Homo sapiens, MDA-MB-231 cells, read-out: MDA-MB-231, MTS 72 hours at 10 uM.
Where [4] appears, read: Homo sapiens, NCI-H1299 cells, read-out: NCI-H1299, MTS 72 hours at 10 uM.
The mark [5] stands for this setting: Homo sapiens, PC-3 cells, read-out: PC-3, MTS 72 hours at 10 uM.
The mark [6] stands for this setting: PACA-2 cells, read-out: PACA-2, MTS 72 hours at 10 uM.

Read-outs that look alike come from different tables or passages of the source.

With `CCCCNc1nc2c3c(n[nH]c3n1)CCN2Cc1ccccc1` [Compound 84, 6-benzyl-N-butyl-2,6,7,8-tetrahydro-1,2,3,5,6-pentaazaacenaphthylen-4-amine], the inhibition at 10 µM is over 79% under setting [1]; over 79% under setting [2]; over 79% under setting [3]; over 79% under setting [4]; over 79% under setting [5]; over 79% under setting [6].
Turning to `CS(=O)(=O)c1nc2c3c(n[nH]c3n1)CCN2Cc1ccccc1` [Compound 2, 6-benzyl-4-(methylsulfonyl)-2,6,7,8-tetrahydro-1,2,3,5,6-pentaazaacenaphthylene], the inhibition at 10 µM is under 50% under setting [1]; under 50% under setting [2]; under 50% under setting [3]; under 50% under setting [4]; under 50% under setting [5]; under 50% under setting [6].
In the case of `COc1ccc(CCN(C)c2nc3c4c(n[nH]c4n2)CCN3Cc2ccccc2)cc1OC` [Compound 14, 6-benzyl-N-[2-(3,4-dimethoxyphenyl)ethyl]-N-methyl-2,6,7,8-tetrahydro-1,2,3,5,6-pentaazaacenaphthylen-4-amine], the inhibition at 10 µM is under 50% under setting [1]; under 50% under setting [2]; under 50% under setting [3]; under 50% under setting [4]; under 50% under setting [5]; under 50% under setting [6].
Consider `COc1ccc(CN2CCc3nn(C)c4nc(SC)nc2c34)cc1` [Compound 130, 6-(4-methoxybenzyl)-2-methyl-4-(methylsulfanyl)-2,6,7,8-tetrahydro-1,2,3,5,6-pentaazaacenaphthylene], for which the inhibition at 10 µM runs as follows: under setting [1], under 50%; under setting [2], under 50%; under setting [3], under 50%; under setting [4], under 50%; under setting [5], under 50%; under setting [6], 50 to 79%.
As for `COc1cc(CCNc2nc3c4c(n[nH]c4n2)CCN3Cc2ccccc2)cc(OC)c1` [Compound 11, 6-benzyl-N-[2-(3,5-dimethoxyphenyl)ethyl]-2,6,7,8-tetrahydro-1,2,3,5,6-pentaazaacenaphthylen-4-amine], the inhibition at 10 µM under setting [1] fell in the range of 50 to 79%; the inhibition at 10 µM under setting [2] was over 79%; the inhibition at 10 µM under setting [3] is under 50%; the inhibition at 10 µM under setting [4] was over 79%; the inhibition at 10 µM under setting [5] was under 50%; the inhibition at 10 µM under setting [6] was in the range of 50 to 79%.
Take `COc1ccc(CN2CCc3n[nH]c4nc(Nc5ccc(N6CCN(C)CC6)cc5)nc2c34)cc1` [Compound 120, 6-(4-methoxybenzyl)-N-[4-(4-methylpiperazin-1-yl)phenyl]-2,6,7,8-tetrahydro-1,2,3,5,6-pentaazaacenaphthylen-4-amine]: the inhibition at 10 µM under setting [1] was over 79%; the inhibition at 10 µM under setting [2] is over 79%; the inhibition at 10 µM under setting [3] was over 79%; the inhibition at 10 µM under setting [4] lay within 50 to 79%; the inhibition at 10 µM under setting [5] was over 79%; the inhibition at 10 µM under setting [6] is over 79%.
For `c1ccc(CN2CCc3n[nH]c4nc(NCC5CCCCC5)nc2c34)cc1` [Compound 55, 6-benzyl-N-(cyclohexylmethyl)-2,6,7,8-tetrahydro-1,2,3,5,6-pentaazaacenaphthylen-4-amine], the inhibition at 10 µM under setting [1] was over 79%; the inhibition at 10 µM under setting [2] is over 79%; the inhibition at 10 µM under setting [3] is over 79%; the inhibition at 10 µM under setting [4] is 50 to 79%; the inhibition at 10 µM under setting [5] was under 50%; the inhibition at 10 µM under setting [6] was under 50%.
For `c1ccc(CN2CCc3n[nH]c4nc(N5CCN(CCc6ccncc6)CC5)nc2c34)cc1` [Compound 74, 6-benzyl-4-[4-(2-pyridin-4-ylethyl)piperazin-1-yl]-2,6,7,8-tetrahydro-1,2,3,5,6-pentaazaacenaphthylene], the inhibition at 10 µM by setting is: under setting [1], under 50%; under setting [2], under 50%; under setting [3], under 50%; under setting [4], under 50%; under setting [5], under 50%; under setting [6], under 50%.
On to `CN(CCO)c1nc2c3c(n[nH]c3n1)CCN2Cc1ccccc1` [Compound 64, 2-[(6-benzyl-2,6,7,8-tetrahydro-1,2,3,5,6-pentaazaacenaphthylen-4-yl)(methyl)amino]ethanol], for which the inhibition at 10 µM was under 50% under setting [1]; under 50% under setting [2]; under 50% under setting [3]; under 50% under setting [4]; under 50% under setting [5]; under 50% under setting [6].
In the case of `O=C(C1CN(Cc2ccccc2)c2nc(NCc3ccccc3)nc3[nH]nc1c23)N1CCOCC1` (stereo not drawn) [Compound 237, N,6-dibenzyl-8-(morpholin-4-ylcarbonyl)-2,6,7,8-tetrahydro-1,2,3,5,6-pentaazaacenaphthylen-4-amine], the inhibition at 10 µM under setting [1] was under 50%; the inhibition at 10 µM under setting [2] was under 50%; the inhibition at 10 µM under setting [3] was under 50%; the inhibition at 10 µM under setting [4] is under 50%; the inhibition at 10 µM under setting [5] was under 50%; the inhibition at 10 µM under setting [6] is under 50%.
As to `COc1ccccc1N1CCN(c2nc3c4c(n[nH]c4n2)CCN3Cc2ccccc2)CC1` [Compound 43, 6-benzyl-4-[4-(2-methoxyphenyl)piperazin-1-yl]-2,6,7,8-tetrahydro-1,2,3,5,6-pentaazaacenaphthylene], the inhibition at 10 µM runs as follows: under setting [1], under 50%; under setting [2], over 79%; under setting [3], over 79%; under setting [4], under 50%; under setting [5], over 79%; under setting [6], under 50%.
In the case of `c1ccc(CN2CCc3n[nH]c4nc(N5CCc6ccccc6C5)nc2c34)cc1` [Compound 19, 6-benzyl-4-(3,4-dihydroisoquinolin-2(1H)-yl)-2,6,7,8-tetrahydro-1,2,3,5,6-pentaazaacenaphthylene], the inhibition at 10 µM by setting is: under setting [1], under 50%; under setting [2], under 50%; under setting [3], 50 to 79%; under setting [4], under 50%; under setting [5], 50 to 79%; under setting [6], under 50%.
For the compound `c1ccc(CN2CCc3n[nH]c4nc(NCc5ccc(-c6ccccc6)cc5)nc2c34)cc1` [Compound 79, 6-benzyl-N-(biphenyl-4-ylmethyl)-2,6,7,8-tetrahydro-1,2,3,5,6-pentaazaacenaphthylen-4-amine], the inhibition at 10 µM reads like this: under setting [1], over 79%; under setting [2], 50 to 79%; under setting [3], 50 to 79%; under setting [4], over 79%; under setting [5], under 50%; under setting [6], under 50%.
On to `c1ccc(CN2CCc3n[nH]c4nc(NCCOc5ccccc5)nc2c34)cc1` [Compound 34, 6-benzyl-N-(2-phenoxyethyl)-2,6,7,8-tetrahydro-1,2,3,5,6-pentaazaacenaphthylen-4-amine], for which the inhibition at 10 µM was under 50% under setting [1]; under 50% under setting [2]; 50 to 79% under setting [3]; under 50% under setting [4]; under 50% under setting [5]; 50 to 79% under setting [6].
For `COc1cc2c(cc1OC)CN(c1nc3c4c(n[nH]c4n1)CCN3Cc1ccccc1)CC2` [Compound 58, 6-benzyl-4-(6,7-dimethoxy-3,4-dihydroisoquinolin-2(1H)-yl)-2,6,7,8-tetrahydro-1,2,3,5,6-pentaazaacenaphthylene], the inhibition at 10 µM reads like this: under setting [1], 50 to 79%; under setting [2], under 50%; under setting [3], 50 to 79%; under setting [4], 50 to 79%; under setting [5], over 79%; under setting [6], under 50%.
As for `c1ccc(CN2CCc3n[nH]c4nc(NCc5cccc6ccccc56)nc2c34)cc1` [Compound 7, 6-benzyl-N-(1-naphthylmethyl)-2,6,7,8-tetrahydro-1,2,3,5,6-pentaazaacenaphthylen-4-amine], the inhibition at 10 µM is under 50% under setting [1]; over 79% under setting [2]; over 79% under setting [3]; under 50% under setting [4]; over 79% under setting [5]; under 50% under setting [6].
Regarding `c1ccc(CN2CCc3n[nH]c4nc(N5CCCCC5)nc2c34)cc1` [Compound 76, 6-benzyl-4-piperidin-1-yl-2,6,7,8-tetrahydro-1,2,3,5,6-pentaazaacenaphthylene], the inhibition at 10 µM reads like this: under setting [1], under 50%; under setting [2], under 50%; under setting [3], under 50%; under setting [4], under 50%; under setting [5], under 50%; under setting [6], under 50%.
In the case of `c1ccc(N2CCc3n[nH]c4nc(N5CCCC5)nc2c34)cc1` [Compound 216, 6-phenyl-4-pyrrolidin-1-yl-2,6,7,8-tetrahydro-1,2,3,5,6-pentaazaacenaphthylene], the inhibition at 10 µM reads like this: under setting [1], under 50%; under setting [2], under 50%; under setting [3], under 50%; under setting [4], under 50%; under setting [5], under 50%; under setting [6], 50 to 79%.
On to `COc1cc(CNc2nc3c4c(n[nH]c4n2)CCN3Cc2ccccc2)cc(OC)c1` [Compound 82, 6-benzyl-N-(3,5-dimethoxybenzyl)-2,6,7,8-tetrahydro-1,2,3,5,6-pentaazaacenaphthylen-4-amine], for which the inhibition at 10 µM by setting is: under setting [1], under 50%; under setting [2], under 50%; under setting [3], under 50%; under setting [4], under 50%; under setting [5], under 50%; under setting [6], under 50%.

For the origin of these results see patent US8343983B2, “Substituted pyrazolo-pyrimidine compounds” (ArQule, Inc., priority 2009, dated 2013).
